Experimental data from patent US7253177B2, “Synthesis and antimalarial activity of pyrrolo[3,2-f]quinazoline-1,3-diamine derivatives” (United States of America as Represented by the Secretary of …, priority 2004, dated 2007).
Converted amounts (≈) assume the structure as drawn. Like-named read-outs stand apart in the source and are kept apart here.

Legend:
[1] = system: Plasmodium falciparum D-6 clone (CDC Sierra Leone I); test: In vitro antimalarial study, [3H]hypoxanthine uptake, D-6 clone; type: cell-based; conditions: for IC50: Plasmodium falciparum, read-out: IC50 D-6; for IC50 D-6: P. falciparum D-6 clone
Experimental: (§1) B. Antimalarial Activities: (a). In Vitro Antimalarial Studies. The in vitro assays were conducted by using a modification of the semiautomated microdilution technique of Desjardins et al and Chulay et al.. Four P. falciparum malaria parasite clones, from CDC Indochina III (W-2), CDC Sierra Leone I (D-6), Southeast Asia Isolates (TM91C235) and RCS (Isolates from Brazil) were utilized in susceptibility testing. They were derived by direct visualization and micromanipulation from patient isolates. The W-2 clone is susceptible to mefloquine but resistant to chloroquine, sulfadoxine, pyrimethamine, and quinine, whereas the D-6 clone is naturally resistant to mefloquine but susceptible to chloroquine, sulfadoxine, pyrimethamine and quinine. Test compounds were initially dissolved in DMSO and diluted 400 fold in RPMI 1640 culture medium supplemented with 25 mM Hepes, 32 mM NaHCO3 and 10% Albumax I (Gibco BRL, Grand Island, N.Y.). These solutions were subsequently serially diluted two-fold with a Biomek 1000 (Beckman, Fullerton, Calif.) over 11 different concentrations. The parasites were exposed to serial dilutions of each compound for 48 hrs and incubated at 37° C. with 5% O2, 5% CO2 and 90% N2 prior to the addition of [^3H]hypoxanthine. After a further incubation of 18 hrs, parasite DNA was harvested from each microtiter well using Packard Filtermate 196 Harvester (Meriden, Conn.) onto glass filters. Uptake of [^3H]hypoxanthine was measured with a Packard Topcount Scintillation. Concentration-response data were analyzed by a non-linear regression logistic dose response model and the IC50 values (50% inhibitory concentrations) for each compound were calculated. (Table 3). (b). In Vivo Antimalarial Studies against P. berghei in mice: The in vivo efficacy of the artelinic acid analogs were determined in a modified Thompson test. This test measures the survivability of mice and parasitemia clearance following administration of drug on days 3-5 post infection. In brief, 5×10^6 P. berghei-infected erythrocytes (KBG-173 strain) were inoculated intraperitoneally to female mice that weighed 24-30 g. By day three post-infection, parasitemia ranged from 1.0-3.7%. Each drug, dissolved in 5% sodium bicarbonate, was administered PO twice daily from day 3-5 post-infection. Total doses for each drug ranged from 1.5-384 mg/kg with 8 mice included in each dosage group. The percent suppression of parasitemia in the treated mice compared to the untreated controls was determined for each test compound; the SD-50 (fifty percent suppression dose) and SD-90 were determined from a non-linear regression logistic dose response fit at day 6 parasitemia data. Survival of mice to day 60 post-infection was considered a cure (C). Compounds were considered active (A) when the survival time of the treated mice was greater than twice the control mice, i.e., 12-14 day (Table 4-5). (c). Sporozoite Induced Test Each compound is ground with a mortar & pestle and suspended in 0.5% hydroxyethylcellulose—0.1% Tween 80 for compounds to be administered PO and those given SC are suspended in peanut oil. Each compound is prepared at 3 different dose levels as requested by WRAIR. Compounds are administered either PO or SC to mice once 4 hr before inoculation of sporozoites. Four-week-old male CD-1 mice, purchased from Charles River and weighing 16-17 g, are placed 5 per cage and allowed to acclimate for 4 days before being treated and then inoculated with sporozoites. They are fed food and water ad-lib and maintained at 76° F. with 12 hr light and 12 hr darkness. The cages and water bottles are changed biweekly. The mice are weighed on Days 0, 3 and 6 then biweekly when blood films are taken. Plasmodium yoelii (17×) is used to infect mice that will be used to infect the mosquitoes. Mice are given a single dose of test compound 4 hr before being inoculated intraperitoneally with 2.5×10^5 sporozoites of Plasmodium yoelii on Day 0. […]

[2] = system: Plasmodium berghei (KBG-173 strain); type: in vivo; conditions: mice, oral
Experimental: as §1

[3] = system: Plasmodium falciparum TM91C235 (Southeast Asia Isolates); test: In vitro antimalarial study, [3H]hypoxanthine uptake, TM91C235 clone; type: cell-based; conditions: for IC50: Plasmodium falciparum, read-out: IC50 TM91C235; for IC50 TM91C235: P. falciparum TM91C235 clone
Experimental: as §1

[4] = system: Plasmodium falciparum W-2 clone (CDC Indochina III); test: In vitro antimalarial study, [3H]hypoxanthine uptake, W-2 clone; type: cell-based; conditions: for IC50: Plasmodium falciparum, read-out: IC50 W-2; for IC50 W-2: P. falciparum W-2 clone
Experimental: as §1

Plasmodium berghei = test: Antimalarial activity against Plasmodium berghei in mice by subcutaneous injection; type: in vivo
[5] = system: Plasmodium falciparum RCS (Isolates from Brazil); test: In vitro antimalarial study, [3H]hypoxanthine uptake, RCS clone; type: cell-based; conditions: P. falciparum RCS clone; for IC50: Plasmodium falciparum
Experimental: as §1

[6] = system: Plasmodium yoelii (17x) sporozoites; test: Sporozoite induced test in mice; type: in vivo; conditions: P. yoelii, mice, oral
Experimental: as §1, with “mosquitoes. […] Whole body weights” for “mosquitoes. Mice”, “are taken” for “are given a single dose of test compound 4 hr before being inoculated intraperitoneally with 2.5×10^5 sporozoites of Plasmodium yoelii”, “Day 0 and Day 6 then twice a week for 31 days. A blood film is taken on Day 5 and then twice a week for 31 days. Mice loosing >20% of their body weight will be sacrificed.” for “Day 0.”

Nc1nc(O)c2c(ccc3c2ccn3Cc2ccccc2C(F)(F)F)n1 [Compound 4, 1-hydroxy-3-amino-7-(2-trifluromethyl)benzyl-7H-pyrrolo [3,2-f]quinazoline]
IC50 [1]: 7.24 ng/mL (≈ 20.2 nM) | oral dose range giving 100% cure against P. berghei ([2]; Thompson test): 80 to 180 mg/kg | # Mice Alive Day 30/Total ([2]; 320 mg/kg/day): 1/5 | # Mice Dead/Day Died ([2]; 40-10 mg/kg/day): deaths in each group | # Mice Alive Day 30/Total ([2]; 160-80 mg/kg/day): 5/5 | # Mice Dead/Day Died ([2]; 160-80 mg/kg/day): none | IC50 [3]: 83.4 ng/mL (≈ 233 nM) | IC50 [4]: 53.9 ng/mL (≈ 150 nM)

CC(C)(C)OC(=O)N(C(=O)OC(C)(C)C)c1nc(N)nc2ccc3c(ccn3Cc3ccccc3C(F)(F)F)c12 [Compound 2h]
IC50 D-6 [1]: 0.2549 ng/mL (≈ 0.457 nM) | # Mice Alive Day 30/Total ([2]; 1.25 mg/kg/day): 2/5 | # Mice Alive Day 30/Total ([2]; 80-2.5 mg/kg/day): 5/5 | # Mice Dead/Day Died ([2]; 80-2.5 mg/kg/day): None | IC50 TM91C235 [3]: 26.366 ng/mL (≈ 47.3 nM) | # Mice Alive Day 31/Total (Plasmodium berghei; 40-2.5 mg/kg/day): 7/7 | # Mice Dead/Day Died (Plasmodium berghei; 40-2.5 mg/kg/day): none | IC50 RCS [5]: 5.2370 ng/mL (≈ 9.39 nM) | IC50 W-2 [4]: 3.6678 ng/mL (≈ 6.58 nM)

COc1cc(C)c2c(Oc3cccc(C(F)(F)F)c3)c(OC)cc(NC(C)CCCN)c2n1 (stereo not drawn) [Tefenoquine, reference compound]
Number of Mice Cured ([6]; 1.25 mg/kg): 2/5 | Number of Mice Cured ([6]; 2.5 mg/kg): 4/5 | Number of Mice Cured ([6]; 5 mg/kg): 5/5 | Number of Mice Cured ([6]; 10 mg/kg): 5/5

O=C1CCC(=O)N1c1nc(N2C(=O)CCC2=O)c2c(ccc3c2ccn3Cc2ccccc2C(F)(F)F)n1 [Compound 3g, 1,3-Bis-(1-pyrrolidine-2,5-dione)-7-(2-trifluoromethyl)benzyl-7H-pyrrolo[3,2-f]quinazoline]
IC50 D-6 [1]: 0.1284 ng/mL (≈ 0.246 nM) | # Mice Alive Day 30/Total ([2]; 80 mg/kg/day): 2/5 | # Mice Alive Day 30/Total ([2]; 40-10 mg/kg/day): 0/5 | # Mice Dead/Day Died ([2]; 40-10 mg/kg/day): deaths in each group | IC50 TM91C235 [3]: 0.4021 ng/mL (≈ 0.771 nM) | IC50 RCS [5]: 0.2571 ng/mL (≈ 0.493 nM) | IC50 W-2 [4]: 0.1284 ng/mL (≈ 0.246 nM)

CC(C)(C)OC(=O)N(C(=O)OC(C)(C)C)c1nc(N(C(=O)OC(C)(C)C)C(=O)OC(C)(C)C)c2c(ccc3c2ccn3Cc2ccccc2C(F)(F)F)n1 [Compound 2j]
# Mice Alive Day 31/Total (Plasmodium berghei; 2.5 mg/kg/day): 2/7 | # Mice Alive Day 31/Total (Plasmodium berghei; 10 mg/kg/day): 6/7 | # Mice Dead/Day Died (Plasmodium berghei; 10 mg/kg/day): 1/24 | # Mice Alive Day 31/Total (Plasmodium berghei; 20 mg/kg/day): 7/7 | # Mice Dead/Day Died (Plasmodium berghei; 20 mg/kg/day): none | # Mice Alive Day 31/Total (Plasmodium berghei; 40 mg/kg/day): 5/7 | # Mice Dead/Day Died (Plasmodium berghei; 40 mg/kg/day): 2/19

CC(=O)Nc1nc(N)nc2ccc3c(ccn3Cc3ccccc3C(F)(F)F)c12 [Compound 3a]
IC50 [1]: 0.0097 ng/mL (≈ 0.0243 nM) | IC50 [3]: 0.0206 ng/mL (≈ 0.0516 nM) | IC50 [5]: 0.0096 ng/mL (≈ 0.024 nM) | IC50 [4]: 0.0186 ng/mL (≈ 0.0466 nM)

CCOC(=O)Nc1nc(N(C(=O)OCC)C(=O)OCC)c2c(ccc3c2ccn3Cc2ccccc2C(F)(F)F)n1 [Compound 2c]
IC50 D-6 [1]: >250 ng/mL | # Mice Alive Day 30/Total ([2]; 80-1.25 mg/kg/day): 5/5 | # Mice Dead/Day Died ([2]; 80-1.25 mg/kg/day): None | IC50 TM91C235 [3]: >250 ng/mL | IC50 RCS [5]: >250 ng/mL | IC50 W-2 [4]: >250 ng/mL

CC(C)(C)OC(=O)Nc1nc(N(C(=O)OC(C)(C)C)C(=O)OC(C)(C)C)c2c(ccc3c2ccn3Cc2ccccc2C(F)(F)F)n1 [Compound 2i]
IC50 D-6 [1]: 1.9252 ng/mL (≈ 2.93 nM) | IC50 TM91C235 [3]: 97.708 ng/mL (≈ 149 nM) | # Mice Alive Day 31/Total (Plasmodium berghei; 40-2.5 mg/kg/day): 7/7 | # Mice Dead/Day Died (Plasmodium berghei; 40-2.5 mg/kg/day): none | IC50 RCS [5]: 26.380 ng/mL (≈ 40.1 nM) | IC50 W-2 [4]: 33.569 ng/mL (≈ 51 nM)

CCOC(=O)Nc1nc(N)nc2ccc3c(ccn3Cc3ccccc3C(F)(F)F)c12 [Compound 2a]
IC50 D-6 [1]: 20.709 ng/mL (≈ 48.2 nM) | # Mice Dead/Day Died ([2]; 40-2.5 mg/kg/day): Death in each dose | IC50 TM91C235 [3]: >250 ng/mL | # Mice Alive Day 31/Total (Plasmodium berghei; 40 mg/kg/day): 5/7 | # Mice Dead/Day Died (Plasmodium berghei; 40 mg/kg/day): 2/17 | # Mice Alive Day 31/Total (Plasmodium berghei; 20-2.5 mg/kg/day): 7/7 | # Mice Dead/Day Died (Plasmodium berghei; 20-2.5 mg/kg/day): none | IC50 RCS [5]: >250 ng/mL | IC50 W-2 [4]: >250 ng/mL

CC(=O)N(C(C)=O)c1nc(N)nc2ccc3c(ccn3Cc3ccccc3C(F)(F)F)c12 [Compound 3b]
IC50 [1]: 0.0101 ng/mL (≈ 0.0229 nM) | IC50 [3]: 0.0212 ng/mL (≈ 0.048 nM) | IC50 [5]: 0.0116 ng/mL (≈ 0.0263 nM) | IC50 [4]: 0.0183 ng/mL (≈ 0.0415 nM)

Nc1nc(N2C(=O)CCC2=O)nc2ccc3c(ccn3Cc3ccccc3C(F)(F)F)c12 [Compound 3f, 1-Amino-3-(1-pyrrolidine-2,5-dione)-7-(2-trifluoromethyl-benzyl)-7H-pyrrolo[3,2-f]quinazoline]
IC50 [1]: < 0.488 ng/mL | IC50 [4]: < 0.488 ng/mL

CC(=O)Nc1nc(N(C(C)=O)C(C)=O)c2c(ccc3c2ccn3Cc2ccccc2C(F)(F)F)n1 [Compound 3d]
# Mice Dead/Day Died ([2]; 10-0.625 mg/kg/day): death in each group | # Mice Alive Day 30/Total ([2]; 220-40 mg/kg/day): 5/5 | # Mice Dead/Day Died ([2]; 220-40 mg/kg/day): None
